Experimental data: ChEMBL document CHEMBL1201862, “PubChem BioAssay data set” (2004)
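The compound was tested at five concentrations on cells cultured in 96-well plates, with a 48-hour exposure period. Here, GI50 denotes the concentration required for 50% inhibition of growth.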 Calls of active or inactive are those of the source. Rule as the data show it: active = GI50 up to about 1.1 µM and inactive = higher.

What was measured:
Assay in all cases: growth of human tumour cells (NCI), 48 h
HCT-116 = test system: HCT-116
MDA-MB-435 = test system: MDA-MB-435
SK-OV-3 = test system: SK-OV-3
HOP-92 = test system: HOP-92
NCI-H460 = test system: NCI-H460
CCRF-CEM = test system: CCRF-CEM
TK-10 = test system: TK-10
LOX IMVI = test system: LOX IMVI
SF-539 = test system: SF-539
SF-295 = test system: SF-295
KM12 = test system: KM12
RPMI-8226 = test system: RPMI-8226
SK-MEL-28 = test system: SK-MEL-28
T47D = test system: T47D
ACHN = test system: ACHN
OVCAR-4 = test system: OVCAR-4
SN12C = test system: SN12C
SNB-75 = test system: SNB-75
CAKI-1 = test system: CAKI-1
Malme-3M = test system: Malme-3M
K562 = test system: K562
SR = test system: SR
BT-549 = test system: BT-549
SF-268 = test system: SF-268
HT-29 = test system: HT-29
786-0 = test system: 786-0
MOLT-4 = test system: MOLT-4
M14 = test system: M14
UACC-62 = test system: UACC-62
HOP-62 = test system: HOP-62
SK-MEL-2 = test system: SK-MEL-2
MCF7 = test system: MCF7
NCI-H23 = test system: NCI-H23
IGROV-1 = test system: IGROV-1
A498 = test system: A498
OVCAR-5 = test system: OVCAR-5
EKVX = test system: EKVX
MDA-MB-231 = test system: MDA-MB-231
OVCAR-8 = test system: OVCAR-8
RXF 393 = test system: RXF 393
PC-3 = test system: PC-3
SW-620 = test system: SW-620
HCC 2998 = test system: HCC 2998
SNB-19 = test system: SNB-19
U-251 = test system: U-251
A549 = test system: A549
UACC-257 = test system: UACC-257
NCI/ADR-RES = test system: NCI/ADR-RES
COLO 205 = test system: COLO 205
OVCAR-3 = test system: OVCAR-3
UO-31 = test system: UO-31
NCI-H522 = test system: NCI-H522
NCI-H226 = test system: NCI-H226
DU-145 = test system: DU-145
MDA-N = test system: MDA-N
Hs-578T = test system: Hs-578T
HL-60 = test system: HL-60
SK-MEL-5 = test system: SK-MEL-5
HCT-15 = test system: HCT-15
DMS-114 = test system: DMS-114
SNB-78 = test system: SNB-78
LXFL 529 = test system: LXFL 529
DMS-273 = test system: DMS-273
DLD-1 = test system: DLD-1
M19-MEL = test system: M19-MEL

CC(CCC(=O)O)(c1cc(Br)c(O)c(Br)c1)c1cc(Br)c(O)c(Br)c1
GI50 (HCT-116): 50.4 µM (inactive) | GI50 (MDA-MB-435): 65.8 µM (inactive) | GI50 (SK-OV-3): > 100 µM (inactive) | GI50 (HOP-92): > 100 µM (inactive) | GI50 (NCI-H460): 40.6 µM (inactive) | GI50 (CCRF-CEM): < 0.01 µM (active) | GI50 (TK-10): > 100 µM (inactive) | GI50 (LOX IMVI): 45.5 µM (inactive) | GI50 (SF-539): 50.4 µM (inactive) | GI50 (SF-295): 98.4 µM (inactive) | GI50 (KM12): 45.1 µM (inactive) | GI50 (RPMI-8226): 48.8 µM (inactive) | GI50 (SK-MEL-28): 45 µM (inactive) | GI50 (T47D): 29.9 µM (inactive) | GI50 (ACHN): 87.1 µM (inactive) | GI50 (OVCAR-4): > 100 µM (inactive) | GI50 (SN12C): > 100 µM (inactive) | GI50 (SNB-75): 55.7 µM (inactive) | GI50 (CAKI-1): > 100 µM (inactive) | GI50 (Malme-3M): 58.9 µM (inactive) | GI50 (K562): 71.3 µM (inactive) | GI50 (SR): 39.1 µM (inactive) | GI50 (BT-549): 38.4 µM (inactive) | GI50 (SF-268): 59.7 µM (inactive) | GI50 (HT-29): 93.1 µM (inactive) | GI50 (786-0): > 100 µM (inactive) | GI50 (MOLT-4): 48.3 µM (inactive) | GI50 (M14): 33.3 µM (inactive) | GI50 (UACC-62): 41 µM (inactive) | GI50 (HOP-62): 96.2 µM (inactive) | GI50 (SK-MEL-2): 52.4 µM (inactive) | GI50 (MCF7): 70.6 µM (inactive) | GI50 (NCI-H23): 47.4 µM (inactive) | GI50 (IGROV-1): 88.3 µM (inactive) | GI50 (A498): 30.5 µM (inactive) | GI50 (OVCAR-5): > 100 µM (inactive) | GI50 (EKVX): > 100 µM (inactive) | GI50 (MDA-MB-231): 94.8 µM (inactive) | GI50 (OVCAR-8): 78.2 µM (inactive) | GI50 (RXF 393): 54.8 µM (inactive) | GI50 (PC-3): 54.7 µM (inactive) | GI50 (SW-620): 84.3 µM (inactive) | GI50 (HCC 2998): 30.1 µM (inactive) | GI50 (SNB-19): 57.9 µM (inactive) | GI50 (U-251): 48.9 µM (inactive) | GI50 (A549): > 100 µM (inactive) | GI50 (UACC-257): 76 µM (inactive) | GI50 (NCI/ADR-RES): 83.8 µM (inactive) | GI50 (COLO 205): > 100 µM (inactive) | GI50 (OVCAR-3): 60.3 µM (inactive) | GI50 (UO-31): 66.7 µM (inactive) | GI50 (NCI-H522): 39.6 µM (inactive) | GI50 (NCI-H226): 31.3 µM (inactive) | GI50 (DU-145): 70.3 µM (inactive) | GI50 (MDA-N): 70 µM (inactive) | GI50 (Hs-578T): > 100 µM (inactive) | GI50 (HL-60): 21.4 µM (inactive) | GI50 (SK-MEL-5): 29.4 µM (inactive) | GI50 (HCT-15): 54.3 µM

OCC(O)C(O)C(O)c1nnn[nH]1 (stereo unspecified)
GI50 (HCT-116): > 100 µM (inactive) | GI50 (SK-OV-3): > 100 µM (inactive) | GI50 (HOP-92): > 100 µM (inactive) | GI50 (NCI-H460): > 100 µM (inactive) | GI50 (CCRF-CEM): > 100 µM (inactive) | GI50 (LOX IMVI): > 100 µM (inactive) | GI50 (SF-539): > 100 µM (inactive) | GI50 (SF-295): > 100 µM (inactive) | GI50 (KM12): > 100 µM (inactive) | GI50 (RPMI-8226): > 100 µM (inactive) | GI50 (ACHN): > 100 µM (inactive) | GI50 (OVCAR-4): > 100 µM (inactive) | GI50 (SN12C): > 100 µM (inactive) | GI50 (SNB-75): > 100 µM (inactive) | GI50 (CAKI-1): > 100 µM (inactive) | GI50 (Malme-3M): > 100 µM (inactive) | GI50 (K562): > 100 µM (inactive) | GI50 (SR): > 100 µM (inactive) | GI50 (SF-268): > 100 µM (inactive) | GI50 (HT-29): > 100 µM (inactive) | GI50 (786-0): > 100 µM (inactive) | GI50 (MOLT-4): > 100 µM (inactive) | GI50 (DMS-114): > 100 µM (inactive) | GI50 (M14): > 100 µM (inactive) | GI50 (UACC-62): > 100 µM (inactive) | GI50 (HOP-62): > 100 µM (inactive) | GI50 (SK-MEL-2): > 100 µM (inactive) | GI50 (NCI-H23): > 100 µM (inactive) | GI50 (IGROV-1): > 100 µM (inactive) | GI50 (OVCAR-5): > 100 µM (inactive) | GI50 (SNB-78): > 100 µM (inactive) | GI50 (EKVX): > 100 µM (inactive) | GI50 (OVCAR-8): > 100 µM (inactive) | GI50 (SW-620): > 100 µM (inactive) | GI50 (LXFL 529): > 100 µM (inactive) | GI50 (U-251): > 100 µM (inactive) | GI50 (COLO 205): > 100 µM (inactive) | GI50 (OVCAR-3): > 100 µM (inactive) | GI50 (DMS-273): > 100 µM (inactive) | GI50 (UO-31): > 100 µM (inactive) | GI50 (NCI-H522): > 100 µM (inactive) | GI50 (NCI-H226): 34.8 µM (inactive) | GI50 (DLD-1): > 100 µM (inactive) | GI50 (M19-MEL): > 100 µM (inactive) | GI50 (HL-60): > 100 µM (inactive) | GI50 (SK-MEL-5): > 100 µM (inactive) | GI50 (HCT-15): > 100 µM
